# According to patent publication US20230109839A1, “THERAPEUTIC AGENT FOR TAUOPATHIES” (SUMITOMO PHARMA CO., LTD., priority 2020, published 2023):
# Biological target: T1, human Nav1.1 (Homo sapiens, UniProt P35498)
# T1 construct: host or cells: HEK293
# Assay: Amplification of Nav1.1-derived voltage-gated sodium current (Nav1.1 current), automated patch clamp (Test 1)
# Format: cell-based
# Settings: Concentration for evaluation 1 μM; HEK293 cell line stably expressing human Nav1.1
# How it was run: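 HEK293 cells stably expressing human Nav1.1, restricted to cells with >500 pA current, were recorded by automated voltage-clamp patch clamp with a ramp voltage stimulus. Compounds were applied in HEPES-buffered extracellular solution with 1% DMSO. Amplification (%) = 100×(peak or AUC after/before compound)−100.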
row,Compound,Nav1.1 current amplification rate (%)
1,CN(CC1CCC1)c1cnc2cnn(CC(=O)Nc3ccn4ncnc4c3)c2n1 [Example 625],255
2,CN(CC1CCCC1)c1cnc2cnn(CC(=O)Nc3ccn4ncnc4c3)c2n1 [Example 626],200
3,CN(c1cnc2cnn(CC(=O)Nc3ccn4ncnc4c3)c2n1)C1CCC(F)(F)C1 (stereo not drawn) [Example 628],14
4,CN(c1cnc2cnn(CC(=O)Nc3ccn4ncnc4c3)c2n1)C1CC1(C)C (stereo not drawn) [Example 631],49
5,CN(c1ncc2cnn(CC(=O)Nc3ccn4ncnc4c3)c2n1)C1CC(C)(C)C1 [Example 632],164
6,CC(C1CC1)N(C)c1cnc2cnn(CC(=O)Nc3ccn4ncnc4c3)c2n1 (stereo not drawn) [Example 633],15
7,CC(C1CCC1)N(C)c1cnc2cnn(CC(=O)Nc3ccn4ncnc4c3)c2n1 (stereo not drawn) [Example 634],13
8,CC1CC(N(C)c2cnc3cnn(CC(=O)Nc4ccn5ncnc5c4)c3n2)C1 (stereo not drawn) [Example 635],76
9,CN(CC1(C)CC1)c1cnc2cnn(CC(=O)Nc3ccn4ncnc4c3)c2n1 [Example 639],100
10,CN(CC1(F)CC1)c1cnc2cnn(CC(=O)Nc3ccn4ncnc4c3)c2n1 [Example 640],38
11,CC1CC=C(c2cnc3cnn(CC(=O)Nc4ccc5cncnc5c4)c3n2)CC1 (stereo not drawn) [Example 641],361
12,CC1CCN(c2cnc3cnn(CC(=O)Nc4ccc5cncnc5c4)c3n2)CC1 [Example 642],252
13,CN(CCC1CC1)c1cnc2cnn(CC(=O)Nc3ccc4cncnc4c3)c2n1 [Example 647],165
14,CC1(C)CC=C(c2cnc3cnn(CC(=O)Nc4ccc5ncnn5c4)c3n2)CC1 [Example 649],91
15,CCC1CC=C(c2cnc3cnn(CC(=O)Nc4ccc5ncnn5c4)c3n2)CC1 (stereo not drawn) [Example 650],26
16,CC1CC=C(c2cnc3cnn(CC(=O)Nc4ccc5ncnn5c4)c3n2)CC1 (stereo not drawn) [Example 653],173
17,CC1(C)CCN(c2cnc3cnn(CC(=O)Nc4ccc5ncnn5c4)c3n2)CC1 [Example 654],23
18,O=C(Cn1ncc2ncc(C3=CCC4(CC3)CC4)nc21)Nc1ccc2ncnn2c1 [Example 656],70
19,CC1CCN(c2cnc3cnn(CC(=O)Nc4ccc5ncnn5c4)c3n2)CC1(F)F (stereo not drawn) [Example 658],33
20,O=C(Cn1ncc2ncc(N3CCC4(CC4)C(F)(F)C3)nc21)Nc1ccc2ncnn2c1 [Example 659],25
21,O=C(Cn1ncc2ncc(C3=CCC4(CC3)CC4(F)F)nc21)Nc1ccc2ncnn2c1 (stereo not drawn) [Example 660],64

row,Compound,Nav1.1 current amplification rate (%)
1,CC(C)CN(C)c1cnc2cnn(CC(=O)Nc3ccc4ncnn4c3)c2n1 [Example 661],12
2,CN(CC1CC1)c1cnc2cnn(CC(=O)Nc3ccc4ncnn4c3)c2n1 [Example 663],13
3,CN(c1cnc2cnn(CC(=O)Nc3ccc4ncnn4c3)c2n1)C1CC1 [Example 664],34
4,CN(c1cnc2cnn(CC(=O)Nc3ccc4ncnn4c3)c2n1)C1CC2(CC2)C1 [Example 666],64
5,CN(CC1(C)CC1)c1cnc2cnn(CC(=O)Nc3ccc4ncnn4c3)c2n1 [Example 667],45
6,CN(c1ncc2cnn(CC(=O)Nc3ccc4ncnn4c3)c2n1)C1CC(C)(C)C1 [Example 668],72
7,CN(c1cnc2cnn(CC(=O)Nc3ccc4ncnn4c3)c2n1)C1CCCC1 [Example 669],30
8,CN(c1cnc2cnn(CC(=O)Nc3ccn4ccnc4c3)c2n1)C1CCCC1 [Example 670],77
9,CN(c1cnc2cnn(CC(=O)Nc3cccc(N4CCOCC4)c3F)c2n1)C1CCCC1 [Example 671],34
10,Cc1cc(NC(=O)Cn2ncc3ncc(N(C)C4CCCC4)nc32)cc2ncnn12 [Example 672],56
11,CN(C)c1nc2cc(NC(=O)Cn3ncc4ncc(N(C)C5CCCC5)nc43)ccc2o1 [Example 674],62
12,Cc1nc2cc(NC(=O)Cn3ncc4ncc(N(C)C5CCCC5)nc43)ccc2o1 [Example 675],36
13,Cc1nc2cc(NC(=O)Cn3ncc4ncc(N(C)C5CCCC5)nc43)cnc2s1 [Example 676],36
14,Cc1cc(NC(=O)Cn2ncc3ncc(N(C)C4CCCC4)nc32)cn2ncnc12 [Example 677],35
15,CN(c1cnc2cnn(CC(=O)Nc3ccc4oc(C(F)F)nc4c3)c2n1)C1CCCC1 [Example 678],132
16,CN(c1cnc2cnn(CC(=O)Nc3ccc4cnnn4c3)c2n1)C1CCCC1 [Example 679],63
17,CN(c1cnc2cnn(CC(=O)Nc3ccc4nccnc4c3)c2n1)C1CCCC1 [Example 680],50
18,Cc1nccn1-c1ccc(NC(=O)Cn2ncc3ncc(N(C)C4CCCC4)nc32)cc1 [Example 681],26
19,CN(c1cnc2cnn(CC(=O)Nc3ccc(-n4ccnc4)nc3)c2n1)C1CCCC1 [Example 682],53
20,CN(c1cnc2cnn(CC(=O)Nc3ccc(C#N)nc3)c2n1)C1CCCC1 [Example 683],63
21,Cc1cc(NC(=O)Cn2ncc3ncc(N(C)C4CCCC4)nc32)cc2nccn12 [Example 684],39

row,Compound,Nav1.1 current amplification rate (%)
1,CN(c1cnc2cnn(CC(=O)Nc3ccn4ccnc4c3)c2n1)C1CCC1 [Example 685],41
2,Cc1cn2ccc(NC(=O)Cn3ncc4ncc(N(C)C5CCC5)nc43)cc2n1 [Example 686],13
3,Cc1cc(NC(=O)Cn2ncc3ncc(N(C)C4CCC4)nc32)cc2ncnn12 [Example 687],67
4,CN(c1cnc2cnn(CC(=O)N3CCc4c(C5=CCOCC5)cccc43)c2n1)C1CCC1 [Example 688],201
5,CN(c1cnc2cnn(CC(=O)N3CCc4c(-c5ccncc5)cccc43)c2n1)C1CCC1 [Example 689],286
6,CN(c1cnc2cnn(CC(=O)Nc3cncc(Br)c3)c2n1)C1CCC1 [Example 692],33
7,CN(c1cnc2cnn(CC(=O)N3CCc4c(-c5ccnn5C)cccc43)c2n1)C1CCC1 [Example 693],13
8,CN(c1cnc2cnn(CC(=O)N3CCc4c(-c5cnn(C)c5)cccc43)c2n1)C1CCC1 [Example 694],448
9,CC(=O)N1CC(c2cccc3c2CCN3C(=O)Cn2ncc3ncc(N(C)C4CCC4)nc32)C1 [Example 695],219
10,CN(c1cnc2cnn(CC(=O)N3CCc4c(C5CN(C(=O)CO)C5)cccc43)c2n1)C1CCC1 [Example 696],306
11,CN1CCN(c2cccc3c2CCN3C(=O)Cn2ncc3ncc(N(C)C4CCC4)nc32)CC1 [Example 697],21
12,CN1CC(c2cccc3c2CCN3C(=O)Cn2ncc3ncc(N(C)C4CCC4)nc32)C1 [Example 698],18
13,CN(c1cnc2cnn(CC(=O)N3CCc4c(-c5ccnnc5)cccc43)c2n1)C1CC1 [Example 699],366
14,CN(c1cnc2cnn(CC(=O)Nc3ccn4ccnc4c3)c2n1)C1CC1 [Example 702],60
15,Cc1cn2ccc(NC(=O)Cn3ncc4ncc(N(C)C5CC5)nc43)cc2n1 [Example 703],27
16,Cc1cc(NC(=O)Cn2ncc3ncc(N(C)C4CC4)nc32)cc2ncnn12 [Example 704],109
17,CN(c1cnc2cnn(CC(=O)N3CCc4cc(N5CCOCC5)ccc43)c2n1)C1CC1 [Example 705],54
18,CN(c1cnc2cnn(CC(=O)Nc3ccc4cnccc4c3)c2n1)C1CC1 [Example 706],195
19,CN(c1cnc2cnn(CC(=O)Nc3ccc4cnnn4c3)c2n1)C1CC1 [Example 707],62
20,CN(c1cnc2cnn(CC(=O)Nc3ccc(C#N)nc3)c2n1)C1CC1 [Example 709],44
21,CN(c1cnc2cnn(CC(=O)Nc3ccc4cccnc4c3)c2n1)C1CC1 [Example 711],100

# Same assay, conditions: Concentration for evaluation 3 μM; HEK293 cell line stably expressing human Nav1.1
row,Compound,Nav1.1 current amplification rate (%)
1,COCC1(N(C)c2cnc3cnn(CC(=O)Nc4ccn5ncnc5c4)c3n2)CC1 [Example 629],15
2,CN(c1cnc2cnn(CC(=O)N3CCN(c4cccnc4)CC3)c2n1)C1CCCC1 [Example 673],20
3,CN(c1cnc2cnn(CC(=O)N3CCc4cc(C#N)ccc43)c2n1)C1CCC1 [Example 691],11
4,CN(c1cnc2cnn(CC(=O)N3CC=C(c4cccnc4)CC3)c2n1)C1CC1 [Example 700],13
5,CC(C)c1ccc(NC(=O)Cn2ncc3ncc(N(C)C4CC4)nc32)cn1 [Example 708],25

# Same assay, conditions: Concentration for evaluation 10 μM; HEK293 cell line stably expressing human Nav1.1
row,Compound,Nav1.1 current amplification rate (%)
1,CC1CC2(C1)CN(c1cnc3cnn(CC(=O)Nc4ccn5ncnc5c4)c3n1)C2 [Example 638],58

# Same assay, conditions: Concentration for evaluation 50 μM; HEK293 cell line stably expressing human Nav1.1
row,Compound,Nav1.1 current amplification rate (%)
1,CN(CC(F)F)c1cnc2cnn(CC(=O)Nc3ccn4ncnc4c3)c2n1 [Example 627],60
2,C#CCN(C)c1cnc2cnn(CC(=O)Nc3ccc4ncnn4c3)c2n1 [Example 662],47
3,CC(C)N(C)c1cnc2cnn(CC(=O)Nc3ccc4ncnn4c3)c2n1 [Example 665],63
